Results taken from US20120309739A1, “AKT / PKB INHIBITORS” (ALMAC DISCOVERY LIMITED, priority 2009, published 2012).
Structures can show the parent of a compound that is named as a salt.

Assays:
Assay type in all cases: biochemical
AKT1 = target: T1, AKT1 (Homo sapiens, UniProt P31749); experiment: AKT Kinase Assay (IMAP fluorescent polarisation) vs AKT1; conditions: activated AKT1, FAM Crosstide substrate
T1 construct: purchased SignalChem
Summary of the method: (§1)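 IMAP fluorescence-polarisation read-out (485/528 nm) of 5′FAM-Crosstide phosphorylation; IC50 fitted by non-linear regression from % inhibition against vehicle. Fourteen-point half-log compound dilutions sat 45 min at room temperature with activated isoform at linear-range amount. ATP and substrate followed for 1 h, then a 1 h binding-reagent stop.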

AKT2 = target: T2, AKT2 (Homo sapiens, UniProt P31751); experiment: AKT Kinase Assay (IMAP fluorescent polarisation) vs AKT2; conditions: activated AKT2, FAM Crosstide substrate
T2 construct: purchased SignalChem
T2 sequence (P31751 whole entry): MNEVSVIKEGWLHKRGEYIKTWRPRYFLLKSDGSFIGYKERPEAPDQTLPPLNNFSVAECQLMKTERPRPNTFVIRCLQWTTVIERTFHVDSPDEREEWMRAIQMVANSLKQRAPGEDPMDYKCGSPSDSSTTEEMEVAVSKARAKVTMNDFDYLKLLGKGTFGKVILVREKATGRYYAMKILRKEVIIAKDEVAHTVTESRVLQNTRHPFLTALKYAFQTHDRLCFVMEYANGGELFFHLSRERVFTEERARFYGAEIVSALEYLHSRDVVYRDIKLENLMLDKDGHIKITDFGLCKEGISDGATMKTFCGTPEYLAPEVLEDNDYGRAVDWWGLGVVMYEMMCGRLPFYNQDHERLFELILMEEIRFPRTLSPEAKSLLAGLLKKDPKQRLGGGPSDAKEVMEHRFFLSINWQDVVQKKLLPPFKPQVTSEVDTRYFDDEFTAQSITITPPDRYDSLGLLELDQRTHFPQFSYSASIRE
Summary of the method: as §1

AKT3 = target: T3, AKT3 (Homo sapiens, UniProt Q9Y243); experiment: AKT Kinase Assay (IMAP fluorescent polarisation) vs AKT3; conditions: activated AKT3, FAM Crosstide substrate
T3 construct: purchased SignalChem
T3 sequence (Q9Y243 whole entry): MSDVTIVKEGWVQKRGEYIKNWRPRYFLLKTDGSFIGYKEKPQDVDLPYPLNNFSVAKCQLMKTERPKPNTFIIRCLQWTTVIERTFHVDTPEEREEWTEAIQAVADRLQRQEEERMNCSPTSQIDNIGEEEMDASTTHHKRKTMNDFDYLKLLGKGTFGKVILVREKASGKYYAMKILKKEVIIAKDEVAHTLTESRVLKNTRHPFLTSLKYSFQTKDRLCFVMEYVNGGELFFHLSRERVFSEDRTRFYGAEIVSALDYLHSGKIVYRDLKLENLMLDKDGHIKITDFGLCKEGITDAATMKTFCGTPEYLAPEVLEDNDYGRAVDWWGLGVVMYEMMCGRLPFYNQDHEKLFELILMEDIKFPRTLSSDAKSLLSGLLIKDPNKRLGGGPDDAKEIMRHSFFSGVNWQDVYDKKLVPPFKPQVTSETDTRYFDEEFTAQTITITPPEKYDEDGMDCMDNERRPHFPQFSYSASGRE
Summary of the method: as §1

T1 sequence (P31749 whole entry): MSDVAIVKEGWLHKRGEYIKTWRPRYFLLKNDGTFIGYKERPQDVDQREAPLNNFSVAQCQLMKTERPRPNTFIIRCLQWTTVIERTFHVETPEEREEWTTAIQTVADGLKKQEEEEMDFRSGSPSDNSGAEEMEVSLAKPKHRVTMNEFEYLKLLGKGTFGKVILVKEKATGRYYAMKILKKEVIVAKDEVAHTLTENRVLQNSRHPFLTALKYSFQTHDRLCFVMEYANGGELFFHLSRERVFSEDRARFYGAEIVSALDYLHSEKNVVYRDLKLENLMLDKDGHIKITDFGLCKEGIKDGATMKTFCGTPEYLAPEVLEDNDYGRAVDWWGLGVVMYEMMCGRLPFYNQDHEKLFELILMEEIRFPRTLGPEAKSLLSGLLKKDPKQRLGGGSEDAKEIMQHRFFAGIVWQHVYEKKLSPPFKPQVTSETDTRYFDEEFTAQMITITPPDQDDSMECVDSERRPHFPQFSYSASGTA

Structure (SMILES)	IC50 (AKT1) [nM]	IC50 (AKT2) [nM]	IC50 (AKT3) [nM]
COc1nccc2c(-c3ccccc3)c(-c3ccc(C4(N)CCC4)cc3)oc12 [Example 126, 1-(4-(7-Methoxy-3-phenylfuro[2,3-c]pyridin-2-yl)phenyl)cyclobutanamine]	100 to 1000	100 to 1000	> 10000
COc1nccc2c(I)c(-c3ccc(C4(N)CCC4)cc3)oc12 [Example 127, 1-(4-(3-Iodo-7-methoxyfuro[2,3-c]pyridin-2-yl)phenyl)cyclobutanamine]	> 10000	1000 to 10000	> 10000
NC1(c2ccc(-c3oc4c(=O)[nH]ccc4c3-c3ccccc3)cc2)CCC1 [Example 128, 2-(4-(1-Aminocyclobutyl)phenyl)-3-phenylfuro[2,3-d]pyridin-7(6H)-one]	100 to 1000	1000 to 10000	1000 to 10000
Cn1ccc2c(-c3ccccc3)c(-c3ccc(C4(N)CCC4)cc3)oc2c1=O [Example 129, 2-(4-(1-Aminocyclobutyl)phenyl)-6-methyl-3-phenylfuro[2,3-c]pyridin-7(6H)-one]	100 to 1000	100 to 1000	1000 to 10000
NC1(c2ccc(-c3oc4c(=O)n(CCF)ccc4c3-c3ccccc3)cc2)CCC1 [Example 130, 2-(4-(1-Aminocyclobutyl)phenyl)-6-(2-fluoroethyl)-3-phenylfuro[2,3-c]pyridin-7(6H)-one]	1000 to 10000	100 to 1000	> 10000
NC1(c2ccc(-c3oc4c(=O)n(CCCO)ccc4c3-c3ccccc3)cc2)CCC1 [Example 131, 2-(4-(1-Aminocyclobutyl)phenyl)-6-(3-hydroxypropyl)-3-phenylfuro[2,3-c]pyridin-7(6H)-one]	1000 to 10000	100 to 1000	1000 to 10000
COc1ncc(Br)c2c(-c3ccccc3)c(-c3ccc(C4(N)CCC4)cc3)oc12 [Example 132, 1-(4-(4-Bromo-7-methoxy-3-phenylfuro[2,3-c]pyridin-2-yl)phenyl)cyclobutanamine]	100 to 1000	100 to 1000	> 10000
NC1(c2ccc(-c3oc4ccnc(-c5cn[nH]c5)c4c3-c3ccccc3)cc2)CCC1 [Example 133, 1-(4-(3-Phenyl-4-(1H-pyrazol-4-yl)furo[3,2-c]pyridin-2-yl)phenyl)cyclobutanamine]	1000 to 10000	1000 to 10000	> 10000
NC1(c2ccc(-c3oc4ncc(COCc5ccccc5)nc4c3-c3ccccc3)cc2)CCC1 [Example 142, 1-(4-(2-(Benzyloxymethyl)-7-phenylfuro[2,3-b]pyrazin-6-yl)phenyl)cyclobutanamine]	100 to 1000	100 to 1000	1000 to 10000
CC(=O)Nc1cccc(-c2cnc3oc(-c4ccc(C5(N)CCC5)cc4)c(-c4ccccc4)c3n2)c1 [Example 151, N-(3-(6-(4-(1-Aminocyclobutyl)phenyl)-7-phenylfuro[2,3-b]pyrazin-2-yl)phenyl)acetamide, HCl]	1000 to 10000	1000 to 10000	> 10000
NC(=O)c1cccc(-c2cnc3oc(-c4ccc(C5(N)CCC5)cc4)c(-c4ccccc4)c3n2)c1 [Example 152, 3-(6-(4-(1-Aminocyclobutyl)phenyl)-7-phenylfuro[2,3-b]pyrazin-2-yl)benzamide, HCl]	100 to 1000	1000 to 10000	> 10000
CSc1cnc2c(-c3ccccc3)c(-c3ccc(C4(N)CCC4)cc3)[nH]c2n1 [Example 153, 1-(4-(3-(Methylthio)-7-phenyl-5H-pyrrolo[3,2-b]pyrazin-6-yl)phenyl)cyclobutanamine]	100 to 1000	100 to 1000	> 10000

The remaining lines, values ahead:

IC50 (AKT1) [nM]	IC50 (AKT2) [nM]	IC50 (AKT3) [nM]	Structure (SMILES)
100 to 1000	1000 to 10000	> 10000	NC1(c2ccc(-c3oc4ncc(Cl)nc4c3-c3ccccc3)cc2)CCC1 [Example 134, 1-(4-(2-Chloro-7-phenylfuro[2,3-b]pyrazin-6-yl)phenyl)cyclobutanamine]
100 to 1000	100 to 1000	100 to 1000	NC1(c2ccc(-c3oc4ncc(-c5cn[nH]c5)nc4c3-c3ccccc3)cc2)CCC1 [Example 135, 1-(4-(7-Phenyl-2-(1H-pyrazol-4-yl)furo[2,3-b]pyrazin-6-yl)phenyl)cyclobutanamine]
1000 to 10000	1000 to 10000	> 10000	Cn1cc(-c2cnc3oc(-c4ccc(C5(N)CCC5)cc4)c(-c4ccccc4)c3n2)cn1 [Example 136, 1-(4-(2-(1-Methyl-1H-pyrazol-4-yl)-7-phenylfuro[2,3-b]pyrazin-6-yl)phenyl)cyclobutanamine]
100 to 1000	1000 to 10000	> 10000	Cn1nccc1-c1cnc2oc(-c3ccc(C4(N)CCC4)cc3)c(-c3ccccc3)c2n1 [Example 137, 1-(4-(2-(1-methyl-1H-pyrazol-5-yl)-7-phenylfuro[2,3-b]pyrazin-6-yl)phenyl)cyclobutanamine]
100 to 1000	100 to 1000	1000 to 10000	NC1(c2ccc(-c3oc4ncc(C5CC5)nc4c3-c3ccccc3)cc2)CCC1 [Example 138, 1-(4-(2-Cyclopropyl-7-phenylfuro[2,3-b]pyrazin-6-yl)phenyl)cyclobutanamine]
1000 to 10000	1000 to 10000	1000 to 10000	NC1(c2ccc(-c3oc4ncc(-c5ccccc5)nc4c3-c3ccccc3)cc2)CCC1 [Example 139, 1-(4-(2,7-Diphenylfuro[2,3-b]pyrazin-6-yl)phenyl)cyclobutanamine, HCl]
1000 to 10000	100 to 1000	> 10000	NC1(c2ccc(-c3oc4ncc(-c5cncnc5)nc4c3-c3ccccc3)cc2)CCC1 [Example 140, 1-(4-(7-Phenyl-2-(pyrimidin-5-yl)furo[2,3-b]pyrazin-6-yl)phenyl)cyclobutanamine]
1000 to 10000	1000 to 10000	> 10000	NC1(c2ccc(-c3oc4ncc(-c5ccccn5)nc4c3-c3ccccc3)cc2)CCC1 [Example 141, 1-(4-(7-Phenyl-2-(pyridin-2-yl)furo[2,3-b]pyrazin-6-yl)phenyl)cyclobutanamine]
1000 to 10000	1000 to 10000	> 10000	Cc1n[nH]c(C)c1-c1cnc2oc(-c3ccc(C4(N)CCC4)cc3)c(-c3ccccc3)c2n1 [Example 143, 1-(4-(2-(3,5-Dimethyl-1H-pyrazol-4-yl)-7-phenylfuro[2,3-b]pyrazin-6-yl)phenyl)cyclobutanamine]
1000 to 10000	1000 to 10000	> 10000	NC1(c2ccc(-c3oc4ncc(-c5ccn[nH]5)nc4c3-c3ccccc3)cc2)CCC1 [Example 144, 1-(4-(7-Phenyl-2-(1H-pyrazol-5-yl)furo[2,3-b]pyrazin-6-yl)phenyl)cyclobutanamine]
1000 to 10000	1000 to 10000	> 10000	NC1(c2ccc(-c3oc4ncc(CO)nc4c3-c3ccccc3)cc2)CCC1 [Example 145, (6-(4-(1-Aminocyclobutyl)phenyl)-7-phenylfuro[2,3-b]pyrazin-2-yl)methanol]
1000 to 10000	1000 to 10000	> 10000	C#Cc1cnc2oc(-c3ccc(C4(N)CCC4)cc3)c(-c3ccccc3)c2n1 [Example 146, 1-(4-(2-Ethynyl-7-phenylfuro[2,3-b]pyrazin-6-yl)phenyl)cyclobutanamine]
1000 to 10000	1000 to 10000	> 10000	NC1(c2ccc(-c3oc4ncc(-c5cnn[nH]5)nc4c3-c3ccccc3)cc2)CCC1 [Example 147, 1-(4-(7-Phenyl-2-(1H-1,2,3-triazol-5-yl)furo[2,3-b]pyrazin-6-yl)phenyl)cyclobutanamine]
100 to 1000	1000 to 10000	> 10000	NC1(c2ccc(-c3oc4ncc(NCCO)nc4c3-c3ccccc3)cc2)CCC1 [Example 148, 2-(6-(4-(1-Aminocyclobutyl)phenyl)-7-phenylfuro[2,3-b]pyrazin-2-ylamino)ethanol]
100 to 1000	1000 to 10000	> 10000	Cc1cnc2oc(-c3ccc(C4(N)CCC4)cc3)c(-c3ccccc3)c2n1 [Example 149, 1-(4-(2-Methyl-7-phenylfuro[2,3-b]pyrazin-6-yl)phenyl)cyclobutanamine]
1000 to 10000	100 to 1000	> 10000	NC1(c2ccc(-c3oc4ncc(-c5cccnc5)nc4c3-c3ccccc3)cc2)CCC1 [Example 150, 1-(4-(7-Phenyl-2-(pyridin-3-yl)furo[2,3-b]pyrazin-6-yl)phenyl)cyclobutanamine, 2HCl]
